Reference: patent publication US11565231B2, “Substrates, peptide arrays, and methods” (Vibrant Holdings, LLC, priority 2012, dated 2023)

Tests used:
[1] = tested on: antibodies of clinically proven celiac positive samples; experiment: Immunological binding assay on Periphilin-1 overlapping peptide array; settings: Periphilin-1 spanned as overlapping 12 amino acid peptides, signals significant when exceeding background (400) by a factor of 50
Procedure: Immunological binding assays were performed on an array produced using the materials and methods described in the Examples above. The samples that were used to run the assays included clinically proven celiac positive samples.
The immunoactive regions of Periphilin-1 were determined. With reference to FIG. 17, the microarray substrate including the Periphilin-1 sequence split into 12 amino acid length peptide sequences is shown. […] Determination of background noise, background subtraction, and identification of signals that exceed background noise routine and well within the level of ordinary skill in the microarray binding arts. In this example, the mean background signal intensity was estimated to be 400 and signals were determined to be significant when they exceeded background by a factor of 50.

[2] = tested on: IgA from a celiac positive sample; experiment: Antibody assay (B peptides) on peptide array, IgA binding
Procedure: A peptide array comprising peptide fragment sequences synthesized on the surface of the array was generated according to the methods described above. The peptide array was developed to test all 12 mer sequences from alpha-gliadin, including sequences where glutamine was substituted with glutamate, as described above (see, e.g., FIGS. 15 and 16). A reduction reaction was performed to remove the disulfide bonds that exist between cysteine residues. This reaction was not performed when epitopes involving cyclic peptides based on cysteine bonds are needed. Dithiothreitol was prepared in a concentration of 0.1 g per 20 mL PBS-Tween (PBST). The peptide microarray (herein referred to as the peptide chip) was immersed in the DTT solution and placed in a nitrogen atmosphere at a pressure of 40 Pa at room temperature for 1 hour. […]
The peptide array was then analyzed to detect antibody/peptide complexes. […]
A set of 12-mer sequences generating weakly or strongly positive binding signals to celiac positive samples was compiled (see, e.g., Table A in Appendix A of U.S. Provisional Application No. 61/761,347, incorporated herein by reference). Using a computer programmed to undertake sequence analysis, subsequences present within this set of 12-mer sequences were determined using a series of sliding windows having a minimum length of 3 amino acids and maximum length of 11 amino acids. […]

Substance	subsequence identified for antibody binding [1]	immune dominant subsequence (epitope) for antibody response amongst celiac positive subjects ([2]; alpha-gliadin 12-mer array incl. deamidated sequences, celiac positive samples)	sample binding hits ([2]; celiac-positive serum sample, IgA binding, FIG. 18, Row QPE, Column QPF) [%]
PQQPEQII	key subsequence for antibody binding		
QPEQPF [QPE-QPF]		key immune dominant subsequence	91.78
